# Source: patent EP0411395A2, “Use of ACE inhibitors for atherosclerosis-prophylaxis” (THERA PATENT-VERWALTUNGS-GmbH, priority 1989, dated 1991)
# Experiment: Three-year placebo-controlled study in overweight persons: Doppler sonographic maximal blood flow velocity in the Arteria dorsalis pedis as parameter of atherosclerosis
# Type: in vivo, Patienten
# Settings: for MAXIMALE BLUTSTRÖMUNGSGESCHWINDIGK.: 2 x 3 mg tgl. oral, Arteria dorsalis pedis
# Source text: Es wurden 122 übergewichtige Personen ausgesucht, die im Mittel 25 % Übergewicht hatten. Diese Patienten gaben nach Aufklärung ihr Einverständnis, an dieser Studie über 3 Jahre teilzunehmen. Sie hatten bereits 5 bis 10 Versuche einer Gewichtsabnahme hinter sich, die alle […] verlaufen waren. Ein Diabetes mellitus war nach der Definition des WHO-Reports (Techn. Rep. Ser. 646, 1 bis 80, 1980) bei diesen Patienten ausgeschlossen. Sie wurden in zwei gleich starke Gruppen eingeteilt, so daß nach Alter sowie Ausmaß und Dauer des Übergewichts kein Unterschied bestand. Die Patienten wurden in halbjährlichen Abständen ambulant kontrolliert. Wie zu Beginn wurden bei diesen Kontrollen folgende Blutwerte gemessen: Blutsenkung, Blutbild, Nüchternblutzucker, IGTT, Gewicht, Cholesterin und Triglyzeride, Serumglutamat-Oxalat-Transaminase (SGOT), Serumglutamat-Pyruvat-Transaminase (SGPT). Damit wurden den Stoffwechsel beeinträchtigende Krankheiten ausgeschlossen. Als Parameter der Atherosklerose wurde die dopplersonographisch bestimmte maximale Blutströmungsgeschwindigkeit in der Arteria dorsalis pedis verwendet. Alle Patienten hatten eine schmerzfreie Gehstrecke von über 200 m, die Arteria dorsalis pedis war gut tastbar. Oszillographisch fand sich kein Anhalt für eine Mediasklerose. Das Vorliegen einer Neuropathie wurde mit den üblichen klinischen Methoden ausgeschlossen.
# Die erste Gruppe erhielt 2 x 3 mg Captopril täglich, die zweite Gruppe entsprechend Placebo. Die Patienten hatten die Auflage, keine den Stoffwechsel beeinträchtigenden Medikamente wie z.B. Diuretika, Betablocker oder dergleichen einzunehmen. In beiden Gruppen schieden über den Zeitraum von 3 Jahren 28 Patienten aus verschiedenen Gründen aus. Die Gruppen veränderten sich dadurch jedoch nicht so sehr, daß sie statistisch nicht mehr auswertbar gewesen wären. […] Die Ergebnisse des Versuchs sind in der nachstehenden Tabelle 1 dargestellt. Tabelle I
smiles,measurement,setting,value
"C[C@H](CS)C(=O)N1CCC[C@H]1C(=O)O [Captopril, 1-(2S)-3-Mercapto-2-methylpropionyl -L-prolin]",MAXIMALE BLUTSTRÖMUNGSGESCHWINDIGK.,"1985 - 1 (start), Risikopatienten (Stoffwechselgesunde Übergewichtige), n=63","13,6 ± 0,4 cm/s"
same,MAXIMALE BLUTSTRÖMUNGSGESCHWINDIGK.,"1986 - 2, Risikopatienten, n=60","13,5 ± 0,3 cm/s"
same,MAXIMALE BLUTSTRÖMUNGSGESCHWINDIGK.,"1987 - 2, Risikopatienten, n=54","13,4 ± 0,2 cm/s"
same,MAXIMALE BLUTSTRÖMUNGSGESCHWINDIGK.,"1988 - 1 (after 3 years), Risikopatienten, n=48","13,5 ± 0,2 cm/s"
same,Abfall der maximalen Blutströmungsgeschwindigkeit,"nach 3 Jahren, versus Placebo, 2 x 3 mg Captopril täglich, p 0,05, Student's t-Test",signifikant geringerer Abfall
